This is an account of results in patent publication US20220372542A1, “DETECTION OF ANALYTES BY PROTEIN SWITCHES” (priority 2019, published 2022).

Assay [1] concerns the target T1, glucose dehydrogenase protein switch GDH-2016 (Rd2bb), GDH-105 variant, SEQ ID NO: 11 (Bacillus subtilis, UniProt P12310, A159T/E170K/E96C/F155A/I165M/P194T/Q252L/V156S).
T1 construct: electrode sensor and screen
The assay is described as follows: biochemical. To be noted: read-out: inhibition at 300 uM warfarin. The procedure: Experimental GDH-105 and GDH-2016 glucose-responsive active areas were prepared using a single-layer active area system. The GDH was obtained from Codexis, Redwood City, Calif. The active area was coated onto a carbon working electrode in a single layer composition (Table 8). Following deposition of the active area, the active area was cured for three days at RT.
(§1) Experimental procedure. Testing of the GDH-105 and GDH-2016 sensors was conducted by immersing the electrode in a 100 mM PBS buffer solution at 33° C. NAD^+ (5 mM) supplied to a test beaker containing PBS buffer followed by the addition of glucose (1 mM).

Assay [2] has as its target T2, glucose dehydrogenase GDH-105 (control, backbone) (Bacillus subtilis, UniProt P12310, E198G/I165M/P194T). The assay is described as follows: warfarin inhibition of GDH sensor (FIGS. 9A and 9B). The class given is biochemical. To be noted: 10, 30, 80, 180, and 300 uM warfarin; NAD+ 5 mM, glucose 1 mM, 33° C. The procedure: Warfarin Sensor. Experimental GDH-105 and GDH-2016 glucose-responsive active areas were prepared using a single-layer active area system. The GDH was obtained from Codexis, Redwood City, Calif. The active area was coated onto a carbon working electrode in a single layer composition (Table 8). Following deposition of the active area, the active area was cured for three days at RT.
as §1

In assay [3] the target is glucose dehydrogenase protein switch GDH-2013, GDH-105 variant (Bacillus subtilis, UniProt P12310). The assay is described as follows: screen of GDH variants for glucose activity against analytes. Type of assay: biochemical. To be noted: warfarin 2.08 mM, pH 7.0, NADH kinetics at UV360. The procedure: (§2) Glucose dehydrogenase (GDH) variant libraries comprising GDH polypeptides developed using GDH-105 (Codexis, Redwood, Calif.) as a backbone were prepared. Approximately 2800 GDH variants were prepared. Glucose activity was determined by either NADH kinetic assay using a spectrophotometer set at UV 340 or UV 360 at various time intervals or by endpoint measurement of gluconic acid using RapidFire mass spectrometer.

In assay [4] the target is glucose dehydrogenase protein switch GDH-2004, GDH-105 variant (Bacillus subtilis, UniProt P12310). The description is as above. Type of assay: biochemical. The procedure: as §2
Assay [5] concerns the target glucose dehydrogenase protein switch GDH-2009, GDH-105 variant (Bacillus subtilis, UniProt P12310). The description is as above. The class given is biochemical. The protocol: as §2
Assay [6] deals with T1, glucose dehydrogenase protein switch GDH-2016 (Rd2bb), GDH-105 variant, SEQ ID NO: 11. The class given is biochemical. To be noted: warfarin 2.08 mM, pH 7.0, NADH kinetics at UV360. The procedure: as §2
For assay [7], the target named is glucose dehydrogenase protein switch GDH-2028 (Rd4bb), variant of GDH-2025, C96F; L252V, SEQ ID NO: 15 (Bacillus subtilis, UniProt P12310, A159T/E170K/E96F/F155A/I165M/P194T/Q252V/V156S). Kind of assay: warfarin inhibition of evolved GDH sensors (Table 13). The class given is biochemical. To be noted: NAD+ 10 mM, glucose 5 mM, 100 mM PBS, 33° C. The protocol: (§3) Evolved Warfarin sensors. GDH-105, GDH-2016, GDH-2025, GDH-2026, GDH-2027, and GDH-2028 glucose-responsive active areas were prepared using a single-layer active area system. The GDH was obtained from Codexis, Redwood City, Calif. The active area (0.33 mm^2) was coated onto a carbon working electrode in a single layer composition (Table 8). Following deposition of the active area, the active area was cured for three days at room temperature.
(§4) Experimental procedure. Testing of the GDH-105, GDH-2016, GDH-2025, GDH-2026, GDH-2027, and GDH-2028 sensors was conducted by immersing the electrode in a 100 mM PBS buffer solution at 33° C. NAD^+(10 mM) supplied to a test beaker containing PBS buffer followed by the addition of glucose (5 mM).

The target in assay [8] is glucose dehydrogenase protein switch GDH-2026, variant of GDH-2016, C96F; I141V, SEQ ID NO: 7 (Bacillus subtilis, UniProt P12310, A159T/E170K/E96F/F155A/I141V/I165M/P194T/Q252L/V156S). The description is as above. Type of assay: biochemical. To be noted: NAD+ 10 mM, glucose 5 mM, 100 mM PBS, 33° C. The protocol: as §3, §4
Assay [9] deals with T2, glucose dehydrogenase GDH-105 (control, backbone). The assay is described as above. Type of assay: biochemical. To be noted: NAD+ 10 mM, glucose 5 mM, 33° C. The procedure:
as §3, §4

Assay [10] deals with glucose dehydrogenase protein switch GDH-2027, variant of GDH-2025, C96F; A173G, SEQ ID NO: 12 (Bacillus subtilis, UniProt P12310, A159T/A173G/E170K/E96F/F155A/I165M/P194T/Q252L/V156S). The description is as above. The class given is biochemical. To be noted: NAD+ 10 mM, glucose 5 mM, 100 mM PBS, 33° C. The protocol:
as §3, §4

Assay [11] has as its target glucose dehydrogenase protein switch GDH-2025 (Rd3bb), variant of GDH-2016, C96F, SEQ ID NO: 1 (Bacillus subtilis, UniProt P12310, A159T/E170K/E96F/F155A/I165M/P194T/Q252L/V156S). The description is as above. Type of assay: biochemical. To be noted: NAD+ 10 mM, glucose 5 mM, 100 mM PBS, 33° C. The protocol: as §3, §4
In assay [12] the target is glucose dehydrogenase protein switch GDH-2005, GDH-105 variant (Bacillus subtilis, UniProt P12310). Kind of assay: screen of GDH variants for glucose activity against analytes. Type of assay: biochemical. To be noted: cortisol 2.08 mM, pH 7.5, NADH kinetics at UV340. The protocol:
as §2

In assay [13] the target is glucose dehydrogenase protein switch GDH-2010, GDH-105 variant (Bacillus subtilis, UniProt P12310). The description is as above. The class given is biochemical. To be noted: methotrexate 5.42 mM, pH 7.0, gluconic acid by RapidFire MS. The protocol:
as §2

For assay [14], the target named is glucose dehydrogenase protein switch GDH-2008, GDH-105 variant (Bacillus subtilis, UniProt P12310). The description is as above. Type of assay: biochemical. To be noted: methotrexate 5.42 mM, pH 7.0, gluconic acid by RapidFire MS. The procedure: as §2
Assay [15] concerns the target glucose dehydrogenase protein switch GDH-2007, GDH-105 variant (Bacillus subtilis, UniProt P12310). The assay is described as above. To be noted: methotrexate 5.42 mM, pH 7.0, gluconic acid by RapidFire MS. The class given is biochemical. The procedure: as §2
The mark [16] stands for this setting: warfarin 2.08 mM, pH 7.0, NADH kinetics at UV360.
Where [17] appears, read: methotrexate 5.42 mM, pH 7.0, gluconic acid by RapidFire MS.

In the case of `CC(=O)CC(c1ccccc1)c1c(O)c2ccccc2oc1=O` (stereo not shown) [Warfarin, warfarin], in assay [1], the inhibition at 300 µM was about 55%. Moreover, the “inhibition of the sensor to increasing warfarin concentrations” value in assay [2] was “not affected”. Besides, the “Activate/Inhibit (glucose activity)” value in [3], in assay [4] (setting [16]), in assay [5] (setting [16]) and in assay [6] was “Inhibit” throughout. For the same molecule, the “GDH inhibition at 0.3 mM WF” value is given as 84% in assay [7]; 78% in assay [8]; 5% in assay [9] (0.3 mM WF, 100 mM PBS); 79% in assay [10]; 79% in assay [11]. In assay [9] (10, 30, 80, 180, and 300 uM warfarin), the “inhibition to increasing warfarin concentrations” value is “remained unaffected”.
In the case of `C[C@]12CCC(=O)C=C1CC[C@@H]1[C@@H]2[C@@H](O)C[C@@]2(C)[C@H]1CC[C@]2(O)C(=O)CO` [Cortisol], the “Activate/Inhibit (glucose activity)” value is “Inhibit” in assay [4] (cortisol 2.08 mM, pH 7.5, NADH kinetics at UV340) and “Inhibit” in assay [12].
Consider `CN(Cc1cnc2nc(N)nc(N)c2n1)c1ccc(C(=O)N[C@@H](CCC(=O)O)C(=O)O)cc1` [Methotrexate], for which the “Activate/Inhibit (glucose activity)” value in assay [13], in assay [14], in [4] (setting [17]), in [15] and in assay [5] (setting [17]) was “Inhibit” each time.

The inhibition is the change of the read-out against control, counted positive when it falls.
